Consider 29 compounds from US20250171430A1, “PYRAZOLYL COMPOUNDS AS KV7 CHANNEL ACTIVATORS” (Biohaven Therapeutics Ltd., priority 2022, published 2025).

For the assay, the target named is T1, Kv7.2/7.3 (Homo sapiens, UniProt O43525+O43526).
T1 construct: Kv7.2 tetracycline-induced, Kv7.3 constitutive
Briefly: Kv7.2/7.3 Activation Assay (Thallium Flux Assay). The assay is classed as cell-based. The note with it: hKV7.2/7.3 cell line; test compound at single concentration of 10 μM; fluorescence at 90 sec normalized to positive control (retigabine, 30 μM). The method in brief:
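Single-point activity at 10 μM (0.1% DMSO, HEPES-buffered saline, pH 7.4) was scored from fluorescence at 90 s relative to 30 μM retigabine. Categories were none <0.15, moderate 0.15-0.7 and high >0.7. Thallium influx after stimulus addition was followed with FluxOR II Green dye in hKv7.2/7.3 cells, Kv7.2 expressed under overnight tetracycline (10 ng/mL) induction.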
Take `Cn1nc(NC(=O)C[C@](C)(O)C2CC(F)(F)C2)c(C2CCC2)c1-c1ccc(F)cc1` [Compound 116, (S)-N-(4-cyclobutyl-5-(4-fluorophenyl)-1-methyl-1H-pyrazol-3-yl)-3-(3,3-difluorocyclobutyl)-3-hydroxybutanamide]: the “Kv7.2/7.3 Activity” value is “+ (“+” Moderate Activity 0.15-0.7)”.
The entry for `COCCNC(=O)Nc1nn(C)c(-c2ccc(F)cc2)c1C1CCC1` [Compound 246, 1-(4-cyclobutyl-5-(4-fluorophenyl)-1-methyl-1H-pyrazol-3-yl)-3-(2-methoxyethyl)urea] is “− (“−” No Activity < 0.15)”.
The result for `Cn1nc(NC(=O)NCC2CC(F)(F)C2)c(C2CCC2)c1-c1ccc(F)cc1` [Compound 242, 1-(4-cyclobutyl-5-(4-fluorophenyl)-1-methyl-1H-pyrazol-3-yl)-3-((3,3-difluorocyclobutyl)methyl)urea] reads “+ (“+” Moderate Activity 0.15-0.7)”.
The result for `Cn1nc(NC(=O)CC(C(F)(F)F)C(F)(F)F)c(C2CCC2)c1-c1ccc(OC(F)(F)F)cc1` [Compound 180, N-(4-cyclobutyl-1-methyl-5-(4-(trifluoromethoxy)phenyl)-1H-pyrazol-3-yl)-4,4,4-trifluoro-3-(trifluoromethyl)butanamide] reads “++ (“++” High Activity ≥ 0.7)”.
As for `Cc1nnc(-c2c(C3CCC3)c(NC(=O)CC3CC(F)(F)C3)nn2C)s1` [Compound 239, N-(4-cyclobutyl-1-methyl-5-(5-methyl-1,3,4-thiadiazol-2-yl)-1H-pyrazol-3-yl)-2-(3,3-difluorocyclobutyl)acetamide], the “Kv7.2/7.3 Activity” value is given as “− (“−” No Activity < 0.15)”.
For `Cn1nc(NC(=O)NCC(C)(C)C)c(C2CCC2)c1-c1ccc(F)cc1` [Compound 251, 1-(4-cyclobutyl-5-(4-fluorophenyl)-1-methyl-1H-pyrazol-3-yl)-3-neopentylurea], the “Kv7.2/7.3 Activity” value is on record as “+ (“+” Moderate Activity 0.15-0.7)”.
As to `Cn1nc(NC(=O)CC2(C(F)(F)F)CC2)c(C2CCC2)c1C1CCCCC1` [Compound 69, N-(4-cyclobutyl-5-cyclohexyl-1-methyl-1H-pyrazol-3-yl)-2-(1-(trifluoromethyl)cyclopropyl)acetamide], the “Kv7.2/7.3 Activity” value is “+ (“+” Moderate Activity 0.15-0.7)”.
The result for `C[C@@H](C(=O)Nc1nn(C)c(-c2ccc(Cl)s2)c1C1CCC1)C1(C(F)(F)F)CC1` [Compound 234, (R)-N-(5-(5-chlorothiophen-2-yl)-4-cyclobutyl-1-methyl-1H-pyrazol-3-yl)-2-(1-(trifluoromethyl)cyclopropyl)propanamide] reads “++ (“++” High Activity ≥ 0.7)”; that for `O=C(Nc1nn(CC(F)(F)F)c(-c2ccc(F)cc2)c1C1CCC1)C1(C(F)(F)F)CC1` [Compound 169, N-(4-cyclobutyl-5-(4-fluorophenyl)-1-(2,2,2-trifluoroethyl)-1H-pyrazol-3-yl)-1-(trifluoromethyl)cyclopropane-1-carboxamide], “+ (“+” Moderate Activity 0.15-0.7)”.
The result for `Cn1nc(NC(=O)C(C)(O)c2ccccc2)c(C2CCC2)c1-c1ccc(OC(F)(F)F)cc1` (centres unmarked) [Compound 181, N-(4-cyclobutyl-1-methyl-5-(4-(trifluoromethoxy)phenyl)-1H-pyrazol-3-yl)-2-hydroxy-2-phenylpropanamide] reads “− (“−” No Activity < 0.15)”; that for `Cn1nc(NC(=O)NC2CC(F)(F)C2)c(C2CCC2)c1C1CC(F)(F)C1` [Compound 290, 1-(4-cyclobutyl-5-(3,3-difluorocyclobutyl)-1-methyl-1H-pyrazol-3-yl)-3-(3,3-difluorocyclobutyl)urea], “++ (“++” High Activity ≥ 0.7)”.
The entry for `Cn1nc(NC(=O)C2CC(F)(F)C2)c(C2CCC2)c1-c1ccc(Cl)s1` [Compound 194, N-(5-(5-chlorothiophen-2-yl)-4-cyclobutyl-1-methyl-1H-pyrazol-3-yl)-3,3-difluorocyclobutane-1-carboxamide] is “++ (“++” High Activity ≥ 0.7)”; for `Cn1nc(NC(=O)C[C@H]2CC(F)(F)C2(F)F)c(C2CCC2)c1-c1ccc(Cl)s1` [Compound 231, (S)-N-(5-(5-chlorothiophen-2-yl)-4-cyclobutyl-1-methyl-1H-pyrazol-3-yl)-2-(2,2,3,3-tetrafluorocyclobutyl)acetamide] it is “++ (“++” High Activity ≥ 0.7)”.
For `Cn1nc(NC(=O)OC2CC(F)(F)C2)c(C2CCC2)c1-c1cc(F)c(F)c(F)c1` [Compound 287, 3,3-difluorocyclobutyl (4-cyclobutyl-1-methyl-5-(3,4,5-trifluorophenyl)-1H-pyrazol-3-yl)carbamate], the “Kv7.2/7.3 Activity” value was “++ (“++” High Activity ≥ 0.7)”.
The entry for `Cn1nc(NC(=O)C2(c3ccccc3)CC2)c(C2CCC2)c1-c1ccc(F)cc1` [Compound 103, N-(4-cyclobutyl-5-(4-fluorophenyl)-1-methyl-1H-pyrazol-3-yl)-1-phenylcyclopropane-1-carboxamide] is “+ (“+” Moderate Activity 0.15-0.7)”; for `Cn1nc(NC(=O)CC(C)(C)C2CC2)c(C2CC(F)(F)C2)c1-c1ccc(OC(F)(F)F)cc1` [Compound 43, 3-cyclopropyl-N-(4-(3,3-difluorocyclobutyl)-1-methyl-5-(4-(trifluoromethoxy)phenyl)-1H-pyrazol-3-yl)-3-methylbutanamide] it is “+ (“+” Moderate Activity 0.15-0.7)”; for `Cn1nc(NC(=O)C2(C(F)(F)F)CC2)c(C2CCC2)c1C1CC(C)(C)C1` [Compound 151, N-(4-cyclobutyl-5-(3,3-dimethylcyclobutyl)-1-methyl-1H-pyrazol-3-yl)-1-(trifluoromethyl)cyclopropane-1-carboxamide] it is “++ (“++” High Activity ≥ 0.7)”.
The result for `Cn1nc(NC(=O)[C@H]2CC2(F)F)c(C2CCC2)c1-c1ccc(F)cc1` [Compound 133, (R)-N-(4-cyclobutyl-5-(4-fluorophenyl)-1-methyl-1H-pyrazol-3-yl)-2,2-difluorocyclopropane-1-carboxamide] reads “++ (“++” High Activity ≥ 0.7)”; that for `Cn1nc(NC(=O)[C@H]2CC2(F)F)c(C2CCC2)c1C1CC(C)(C)C1` [Compound 148, (R)-N-(4-cyclobutyl-5-(3,3-dimethylcyclobutyl)-1-methyl-1H-pyrazol-3-yl)-2,2-difluorocyclopropane-1-carboxamide], “++ (“++” High Activity ≥ 0.7)”.
The result for `Cn1nc(NC(=O)C2(C)CC(F)(F)C2)c(C2CCC2)c1-c1ccc(F)c(F)c1` [Compound 201, N-(4-cyclobutyl-5-(3,4-difluorophenyl)-1-methyl-1H-pyrazol-3-yl)-3,3-difluoro-1-methylcyclobutane-1-carboxamide] reads “++ (“++” High Activity ≥ 0.7)”; that for `Cn1nc(NC(=O)C[C@H](O)C(C)(C)C)c(C2CCC2)c1-c1ccc(F)cc1` [Compound 115, (S)-N-(4-cyclobutyl-5-(4-fluorophenyl)-1-methyl-1H-pyrazol-3-yl)-3-hydroxy-4,4-dimethylpentanamide], “+ (“+” Moderate Activity 0.15-0.7)”.
Turning to `Cn1nc(NC(=O)C[C@@H]2CC(F)(F)C2(F)F)c(CC(F)(F)F)c1-c1ccccc1` [Compound 37, (R)-N-(1-methyl-5-phenyl-4-(2,2,2-trifluoroethyl)-1H-pyrazol-3-yl)-2-(2,2,3,3-tetrafluorocyclobutyl)acetamide], the “Kv7.2/7.3 Activity” value is given as “++ (“++” High Activity ≥ 0.7)”.
Take `CCn1nc(NC(=O)CC(C(F)(F)F)C(F)(F)F)c(C2CC2)c1C` [Compound 2, N-(4-cyclopropyl-1-ethyl-5-methyl-1H-pyrazol-3-yl)-4,4,4-trifluoro-3-(trifluoromethyl)butanamide]: the “Kv7.2/7.3 Activity” value is given as “+ (“+” Moderate Activity 0.15-0.7)”.
The result for `Cn1nc(NC(=O)CC2CCCC2)c(C2CCC2)c1-c1ccc(F)cc1` [Compound 102, N-(4-cyclobutyl-5-(4-fluorophenyl)-1-methyl-1H-pyrazol-3-yl)-2-cyclopentylacetamide] reads “++ (“++” High Activity ≥ 0.7)”; that for `COc1ccc(-c2c(C3CCC3)c(NC(=O)C[C@@H]3CC(F)(F)C3(F)F)nn2C)cc1` [Compound 56, (R)-N-(4-cyclobutyl-5-(4-methoxyphenyl)-1-methyl-1H-pyrazol-3-yl)-2-(2,2,3,3-tetrafluorocyclobutyl)acetamide], “++ (“++” High Activity ≥ 0.7)”.
With `Cn1nc(NC(=O)C[C@H]2CC(F)(F)C2(F)F)c(C2CCC2)c1-c1ccc(F)c(F)c1` [Compound 236, (S)-N-(4-cyclobutyl-5-(3,4-difluorophenyl)-1-methyl-1H-pyrazol-3-yl)-2-(2,2,3,3-tetrafluorocyclobutyl)acetamide], the “Kv7.2/7.3 Activity” value is “++ (“++” High Activity ≥ 0.7)”.
For the compound `Cn1nc(NC(=O)C[C@@H]2CC(F)(F)C2(F)F)c(C2CCC2)c1-c1ccc(Cl)s1` [Compound 230, (R)-N-(5-(5-chlorothiophen-2-yl)-4-cyclobutyl-1-methyl-1H-pyrazol-3-yl)-2-(2,2,3,3-tetrafluorocyclobutyl)acetamide], the “Kv7.2/7.3 Activity” value is “++ (“++” High Activity ≥ 0.7)”.
The entry for `Cn1nc(NC(=O)C2(C)CC(F)(F)C2)c(C2CCC2)c1-c1ccc(Cl)cc1` [Compound 221, N-(5-(4-chlorophenyl)-4-cyclobutyl-1-methyl-1H-pyrazol-3-yl)-3,3-difluoro-1-methylcyclobutane-1-carboxamide] is “+ (“+” Moderate Activity 0.15-0.7)”; for `Cn1nc(NC(=O)[C@H]2CC2(F)F)c(C2CCC2)c1-c1cccc(F)c1` [Compound 168, (R)-N-(4-cyclobutyl-5-(3-fluorophenyl)-1-methyl-1H-pyrazol-3-yl)-2,2-difluorocyclopropane-1-carboxamide] it is “++ (“++” High Activity ≥ 0.7)”.
